In brackets after ≈: the same amount, converted by molar mass. Values belong to the compound of their own block, whether it stands above or below them.
Legend:
A549 [1] = assay: Antiproliferative activity against human A549 cells assessed as cell growth inhibition measured for 72 hrs; assay type: functional, cell-based; details: A549, 72 h
SK-OV-3 = assay: Antiproliferative activity against human SK-OV-3 cells assessed as cell growth inhibition measured for 72 hrs; assay type: functional, cell-based; details: SK-OV-3, 72 h
NCI-H460 = assay: Cytotoxicity against human NCI-H460 cells assessed as reduction in cell viability; assay type: functional, cell-based
HCT-116 = assay: Cytotoxicity against human HCT-116 cells assessed as reduction in cell viability; assay type: functional, cell-based
[2] = Inhibition of Saccharomyces cerevisiae 20S proteosome
Plasmodium falciparum [3] = assay: Antimalarial activity against Plasmodium falciparum D6 assessed as reduction in parasite growth; assay type: functional
Plasmodium falciparum [4] = assay: Antimalarial activity against Plasmodium falciparum W2 assessed as reduction in parasite growth; assay type: functional
MCF7 = assay: Antiproliferative activity against human MCF7 cells assessed as cell viability by WST-8 colorimetric assay; assay type: functional, cell-based
A549 [5] = assay: Antiproliferative activity against human A549 cells assessed as cell viability by WST-8 colorimetric assay; assay type: functional, cell-based
P388 [6] = assay: Antiproliferative activity against mouse P388 cells assessed as cell viability by WST-8 colorimetric assay; assay type: functional, cell-based
Leishmania donovani = assay: Antileishmanial activity against Leishmania donovani assessed as parasite growth inhibition; assay type: functional, organism-based
[7] = Activation of hypoxia-induced HIF-1 in human T47D cells; assay type: cell-based
Candida albicans [8] = assay: Antifungal activity against Candida albicans; assay type: functional
Staphylococcus aureus [9] = assay: Antibacterial activity against Staphylococcus aureus SH1000 cultured in iron rich media assessed as reduction in bacterial cell growth; assay type: functional
Staphylococcus aureus [10] = assay: Antibacterial activity against Staphylococcus aureus SH1000 cultured in iron depleted media assessed as reduction in bacterial cell growth; assay type: functional
[11] = Inhibition of sodium channel (unknown origin); design: species or system Homo sapiens
Streptococcus [12] = assay: Antibacterial activity against Streptococcus; assay type: functional
Streptococcus [13] = assay: Antibiofilm activity against Streptococcus assessed as inhibition of biofilm maturation; assay type: functional, organism-based
P388 [14] = assay: Antiproliferative activity against mouse P388 cells assessed as cell growth inhibition; assay type: functional, cell-based
MAXF401 cell line = assay: Cytotoxicity against human NCI-MAXF401 cells assessed as reduction in cell viability; assay type: functional, cell-based
OVCAR-3 = assay: Cytotoxicity against human OVCAR-3 cells assessed as reduction in cell viability; assay type: functional, cell-based
[15] = Cytotoxicity against human bladder carcinoma cell assessed as reduction in cell viability; assay type: functional, cell-based
Candida albicans [16] = assay: Antifungal activity against Candida albicans as reduction in fungal growth; assay type: functional, organism-based

MIC (Staphylococcus aureus [9]): 63 µM (≈ 30.2 µg/mL)
MIC (Staphylococcus aureus [10]): 63 µM (≈ 30.2 µg/mL)
SMILES: CCC(=O)[C@@H](C)C[C@@H](C)C[C@@H](C)CC[C@H](O)CC(=O)[C@H](CC(C)C)[C@H](O)c1cc(O)cc(O)c1

MIC (Staphylococcus aureus [9]): 125 µM (≈ 60.1 µg/mL)
MIC (Staphylococcus aureus [10]): 125 µM (≈ 60.1 µg/mL)
SMILES: CCC(=O)[C@@H](C)C[C@@H](C)C[C@@H](C)CC[C@H](O)C[C@H](O)[C@@H](CC(C)C)[C@H](O)c1cc(O)cc(O)c1

MIC (Staphylococcus aureus [9]): 500 µM (≈ 233 µg/mL)
MIC (Staphylococcus aureus [10]): 500 µM (≈ 233 µg/mL)
SMILES: CC(=O)[C@@H](C)C[C@@H](C)C[C@@H](C)CC[C@H](O)C[C@H](O)[C@H](CC(C)C)[C@H](O)c1cc(O)cc(O)c1

MIC (Staphylococcus aureus [9]): 125 µM (≈ 60.1 µg/mL)
MIC (Staphylococcus aureus [10]): 125 µM (≈ 60.1 µg/mL)
SMILES: CCC(=O)[C@@H](C)C[C@@H](C)C[C@@H](C)CC[C@H](O)C[C@H](O)[C@H](CC(C)C)[C@H](O)c1cc(O)cc(O)c1

MIC (Staphylococcus aureus [9]): 8 µM (≈ 3.4 µg/mL)
MIC (Staphylococcus aureus [10]): 8 µM (≈ 3.4 µg/mL)
SMILES: CCCCCCCCCC[C@H](O)C[C@H](O)[C@H](CC(C)C)[C@H](O)c1cc(O)cc(O)c1

MIC (Staphylococcus aureus [9]): > 500 µM
MIC (Staphylococcus aureus [10]): 250 µM (≈ 110 µg/mL)
SMILES: CCC(=O)CCCCCCC[C@H](O)C[C@H](O)[C@H](CC(C)C)[C@H](O)c1cc(O)cc(O)c1

MIC (Staphylococcus aureus [9]): > 500 µM
MIC (Staphylococcus aureus [10]): > 500 µM
SMILES: CCC(=O)[C@@H](C)C[C@@H](C)C[C@@H](C)CC[C@H](O)C[C@H](O)[C@H](CC(C)C)[C@H](O)c1cc(OC)cc(OC)c1

MIC (Staphylococcus aureus [9]): > 500 µM
MIC (Staphylococcus aureus [10]): > 500 µM
SMILES: CC[C@H](O)C[C@H](O)[C@H](CC(C)C)[C@H](O)c1cc(O)cc(O)c1

MIC (Staphylococcus aureus [9]): 500 µM (≈ 227 µg/mL)
MIC (Staphylococcus aureus [10]): 500 µM (≈ 227 µg/mL)
SMILES: CC(C)C[C@H]([C@H](O)c1cc(O)cc(O)c1)[C@@H](O)C[C@@H](O)CC[C@H](C)C[C@H](C)C[C@H](C)CO

MIC (Staphylococcus aureus [9]): 63 µM (≈ 31.2 µg/mL)
MIC (Staphylococcus aureus [10]): 63 µM (≈ 31.2 µg/mL)
SMILES: CCCC(=O)[C@@H](C)C[C@@H](C)C[C@@H](C)CC[C@H](O)C[C@H](O)[C@H](CC(C)C)[C@H](O)c1cc(O)cc(O)c1

More lines, now with the values behind:

SMILES: C=C/C=C\[C@H](C)[C@H](OC(N)=O)[C@@H](C)[C@H](O)[C@@H](C)C/C(C)=C\[C@H](C)[C@@H](O)[C@@H](C)/C=C\[C@@H](O)C[C@@H]1OC(=O)C(C)=C[C@H]1C
IC50 (A549 [1]): 1.8 nM
IC50 (SK-OV-3): 6.1 nM

SMILES: CCCCCC(=O)N[C@H](C(=O)N[C@@H](CCS(C)(=O)=O)C(=O)N[C@@H](CC(C)C)C(=O)[C@@]1(C)CO1)C(C)C
EC50 (NCI-H460): 6 nM
EC50 (HCT-116): 43 nM
IC50 [2]: 2.6 nM

SMILES: CC(C)=CCC[C@H](C)c1ccc(C)cc1O
MIC (Plasmodium falciparum [3]): 1.8 µg/mL (≈ 8.24 µM)
MIC (Plasmodium falciparum [4]): 3.6 µg/mL (≈ 16.5 µM)

SMILES: CCC[C@H]1C[C@@H](OC)C[C@H](C)C[C@@H]2C[C@@H](OC(=O)/C=C\CCc3coc(/C=C\CNC(=O)OC)n3)C[C@H](CC(=O)O1)O2
IC50 (MCF7): 33 nM
IC50 (A549 [5]): 43.9 nM
IC50 (P388 [6]): 0.72 nM

SMILES: CC(C)=CCC[C@H](C)c1ccc(C)cc1OC(=O)c1ccncc1
IC50 (Leishmania donovani): 600 nM

SMILES: C=C[C@@H]1CSC(C[C@@H](C)[C@@H](C)C[C@H](C)CCN(C)C(=O)[C@H](C)CC)=N1
IC50 [7]: 5.6 nM

SMILES: CO[C@H]1[S+]([O-])/C2=C\C(=O)[C@](C)(O[C@H]3CC[C@H](N(C)C)[C@@H](C)O3)[C@H](O)CC/C(C)=C\[C@@H]3[C@@H](C)[C@](C)(Cl)[C@@H](C[C@H]3O[C@H]3CC[C@H](N(C)C)[C@@H](C)O3)OC(=O)[C@@H]3CSC(=N3)[C@]1(C)N2 (some centres not stated)
MIC (Candida albicans [8]): 16 µg/mL (≈ 17.7 µM)

SMILES: CO/C(=C/C(=O)N1C(=O)C=C[C@@H]1C)CCNC(=O)CC/C=C/C(C)CC/C(=C/Cl)CCCC#CBr (some centres not stated)
IC50 [11]: 5000 nM

SMILES: C[C@H]1/C=C/[C@H]2OC(C)(C)O[C@H]2C(=O)O[C@H](CCCCCCCC(=O)O)[C@@H](C)CCC1
MIC (Streptococcus [12]): 250 µM (≈ 106 µg/mL)
IC50 (Streptococcus [13]): 44000 nM

SMILES: C=CCCC/C(=C\Cl)CCC(C)/C=C/CCC(=O)NCC/C(=C\C(=O)N1C(=O)C=C[C@@H]1C)OC (some centres not stated)
IC50 [11]: 5000 nM

SMILES: C#CCCC/C(=C\Cl)CCC(C)/C=C/CCC(=O)NCC/C(=C\C(=O)N1C(=O)C=C[C@@H]1C)OC (some centres not stated)
IC50 [11]: 5000 nM

SMILES: C[C@H]1/C=C/[C@H]2OC(C)(C)O[C@H]2C(=O)O[C@H](c2cccc(CCCCC(=O)O)c2)[C@@H](C)/C=C/C1
IC50 (Streptococcus [13]): 63000 nM

SMILES: CCCCCCOC(=O)C[C@H]1C[C@H](OC(=O)/C=C\CCc2coc(/C=C\CNC(=O)OC)n2)C[C@@H](/C=C/c2ccccc2)O1
IC50 (A549 [5]): 1.6 nM

SMILES: CCCCCC(=O)N[C@H](C(=O)N[C@@H](CC[S+](C)[O-])C(=O)N[C@@H](CC(C)C)C(=O)[C@@]1(C)CO1)C(C)C (some centres not stated)
EC50 (NCI-H460): 9 nM
EC50 (HCT-116): 19 nM
IC50 [2]: 2.5 nM

SMILES: C=C/C=C\[C@H](C)[C@H](OC(N)=O)[C@@H](C)[C@H](O)[C@@H](C)C/C(C)=C\[C@H](C)[C@@H](O)[C@@H](C)/C=C\[C@@H](O)C[C@@H]1OC(=O)[C@H](C)[C@@H](O)[C@H]1C [DISERMOLIDE]
IC50 (A549 [1]): 1.8 nM
IC50 (P388 [14]): 0.5 µg/mL (≈ 0.842 µM)
IC50 (SK-OV-3): 6.1 nM

SMILES: CC1=CC[C@H]2[C@](C)(CO)CCC[C@]2(C)[C@H]1C[C@@]12O[C@@H]1C(=O)C(CO)=C[C@H]2O [EPOXYPHOLAMIN A]
IC50 (MAXF401 cell line): 0.01 µg/mL (≈ 0.0266 µM)
IC50 (OVCAR-3): 0.017 µg/mL (≈ 0.0452 µM)
IC50 [15]: 0.017 µg/mL (≈ 0.0452 µM)

SMILES: CC(=O)O[C@@H]1c2nc(cs2)C(=O)O[C@@H](CCCC(C)(Cl)Cl)[C@H](C)C(=O)O[C@@H](C(C)(C)O)c2nc(cs2)C(=O)OC1(C)C [HECTOCHLORIN]
IC50 (Candida albicans [16]): 20 nM

SMILES: CC(=O)O[C@H]1C(=O)[C@@]2(C)[C@H]([C@H](OC(=O)c3ccccc3)[C@]3(O)C[C@H](OC(=O)[C@H](O)[C@@H](NC(=O)c4ccccc4)c4ccccc4)C(C)=C1C3(C)C)[C@]1(OC(C)=O)CO[C@@H]1C[C@@H]2O [PACLITAXEL]
IC50 (A549 [1]): 3.8 nM
IC50 (SK-OV-3): 31.3 nM

Source: ChEMBL document CHEMBL5223072, “A look around the West Indies: The spices of life are secondary metabolites” (Bioorg Med Chem, 2020)
